Experimental findings from paper PMC10349806 (Nature Communications, 2023) are described below.

The target in one experiment is T1, PfCRT variant E204A (Plasmodium falciparum, UniProt Q9N623, A220S/E204A/I356T/K76T/M74I/N326S/N75E/Q271E/R371I).
T1 sequence (Q9N623 1-424 M74I/N75E/K76T/E204A/A220S/Q271E/N326S/I356T/R371I): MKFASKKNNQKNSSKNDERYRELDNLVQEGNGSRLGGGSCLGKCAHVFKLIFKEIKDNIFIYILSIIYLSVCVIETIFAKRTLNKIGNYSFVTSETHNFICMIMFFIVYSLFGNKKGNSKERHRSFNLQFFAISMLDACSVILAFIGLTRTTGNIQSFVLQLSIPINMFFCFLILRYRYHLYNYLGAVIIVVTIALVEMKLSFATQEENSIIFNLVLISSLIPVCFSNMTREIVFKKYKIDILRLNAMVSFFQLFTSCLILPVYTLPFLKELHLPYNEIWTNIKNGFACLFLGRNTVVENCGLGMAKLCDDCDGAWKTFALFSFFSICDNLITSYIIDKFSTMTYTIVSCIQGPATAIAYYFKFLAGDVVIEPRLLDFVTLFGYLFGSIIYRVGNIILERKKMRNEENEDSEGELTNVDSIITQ
Nature of the experiment: CQ uptake assay, oocytes expressing E204A. Format: cell-based. The protocol: (§1) Site-directed mutagenesis of PfCRT^Dd2 was performed as described using the megaprimer method with overlap extension[21],[54]. The primer pairs used are listed in Supplementary Table 6. Please note that a codon-optimized and oocyte-adapted version of PfCRT^Dd2 was used[22] (Supplementary Fig. 16). The resulting DNA fragment was cloned into the SP64T expression vector and verified by sequencing.
(§2) Oocytes were obtained as described previously. Briefly, adult (>2 years old) female X. laevis frogs (NASCO) were anesthetized in a cooled solution of ethyl 3-amino benzoate methanesulfonate (0.1%, w/v), followed by a surgical removal of parts of the ovary. The ovary lobes were carefully dissected and small pieces of oocytes were incubated in Ca^2+-free ND96 buffer (96 mM NaCl, 2 mM KCl, 1 mM MgCl2 buffered with 5 mM HEPES/NaOH, pH 7.5) supplemented with collagenase D (0.1%, w/v; Roche), BSA (0.5%, w/v), and 9 mm Na2HPO4 at 18 °C for 14-16 h while gentle shaking. After incubation, the oocytes were carefully washed several times with ND96 buffer (96 mM NaCl, 2 mM KCl, 1.8 mM CaCl2, 1 mM MgCl2 buffered with 5 mM HEPES/NaOH, pH 7.5) supplemented with 100 mg l^−1 gentamycin). Defolliculated and healthy-looking stage V-VI oocytes were manually selected for RNA microinjection. The RNA was generated as following: The codon-optimized sequences of PfCRT variants were cloned into the pSP64T expression vector. After vector linearization using the restriction endonucleases BamHI or SalI (New England Biolabs), transcription was performed using the in vitro SP6 mMessage mMachine Kit (Ambion)[34]. The obtained RNA was kept at −80 °C and diluted with nuclease-free water to a concentration of 0.6 μg μl^−1. Precision-bore glass capillary tubes (3.5-inch glass capillaries; Drummond Scientific Co.) were pulled on a vertical puller (P-87 Flaming/Brown micropipette puller, Sutter Instrument Co.), graduated, and placed on a microinjector (Nanoject II Auto-Nanoliter Injector, Drummond Scientific Co.). 50 nl of nuclease-free water alone (control oocytes) or 50 nl of 0.6 μg μl^−1 RNA were injected under stereomicroscopic control. Injected oocytes were incubated for 46–72 h at 18 °C with twice-daily buffer changes before usage in experiments.
(§3) Drug uptake assays were performed as described previously[21],[22],[24],[34]. […] The direction of radio-labeled drug transport is here from the mostly acidic extracellular solution (pH 4.5 or 6.0, as indicated) into the oocyte cytosol (pH ∼ 7.2), which corresponds to the efflux of drug from the acidic digestive vacuole (pH 5.2) into the parasite cytoplasm (pH 7.2). The topology of PfCRT in the oolemma is such that both the N- and C-terminus face the extracellular milieu[3],[22]. In the parasite, the N- and C-terminus face the lumen of the digestive vacuole. CQ uptake kinetics were performed by incubating oocytes in ND96 buffer adjusted to a pH of 4.5, 5.0, 5.5, or 6.0 and supplemented with 50 nM [^3H]CQ and one of 7 different CQ concentrations (10 µM, 50 µM, 100 µM, 200 µM, 300 µM, 400 µM, 500 µM CQ). The reaction was stopped at the 60 min time point, which is in the linear uptake range[22],[34] (Supplementary Fig. 17). For determination of the amount of drug uptake for each oocyte, the reaction medium was removed and the oocytes were washed three times with 2 ml of ice-cold ND96 buffer. Each oocyte was individually transferred to a scintillation vial containing 5% sodium dodecyl sulfate (200 μl) for lysis. The radioactivity of each sample was measured using a liquid scintillation analyzer Tri-Carb 4910 TR (PerkinElmer). Oocytes that were injected with water instead of RNA were analyzed in parallel, representing the uptake of a drug by diffusion and/or endogenous permeation pathways. The resulting value represents the “background“ level of drug accumulation in oocytes (in-depth discussion in[22]). […]

The subject of the next experiment is PfCRT variant H180A. Nature of the experiment: CQ uptake assay, oocytes expressing H180A. In kind it is cell-based, Plasmodium falciparum. The protocol: as §1, §2
Drug uptake assays were performed as described previously[21],[22],[24],[34]. […] The direction of radio-labeled drug transport is here from the mostly acidic extracellular solution (pH 4.5 or 6.0, as indicated) into the oocyte cytosol (pH ∼ 7.2), which corresponds to the efflux of drug from the acidic digestive vacuole (pH 5.2) into the parasite cytoplasm (pH 7.2). The topology of PfCRT in the oolemma is such that both the N- and C-terminus face the extracellular milieu[3],[22]. In the parasite, the N- and C-terminus face the lumen of the digestive vacuole. CQ uptake kinetics were performed by incubating oocytes in ND96 buffer adjusted to a pH of 4.5, 5.0, 5.5, or 6.0 and supplemented with 50 nM [^3H]CQ and one of 7 different CQ concentrations (10 µM, 50 µM, 100 µM, 200 µM, 300 µM, 400 µM, 500 µM CQ). The reaction was stopped at the 60 min time point, which is in the linear uptake range[22],[34] (Supplementary Fig. 17). […] The radioactivity of each sample was measured using a liquid scintillation analyzer Tri-Carb 4910 TR (PerkinElmer). Oocytes that were injected with water instead of RNA were analyzed in parallel, representing the uptake of a drug by diffusion and/or endogenous permeation pathways. […]

Another experiment deals with PfCRT variant W280A. Nature of the experiment: CQ uptake assay, oocytes expressing W280A. In kind it is cell-based, Plasmodium falciparum. The method, then: as §1, §2, §3
[1] abbreviates: E204A, 50 µM CQ, 1 h, mean ± SEM.
Where [2] appears, read: pH 4.5, single replicates, Fig 1d left.
Where [3] appears, read: pH 6.0, single replicates, Fig 1d left.
The mark [4] stands for this setting: H180A, 50 µM CQ, 1 h, mean ± SEM.
The mark [5] stands for this setting: W280A, 50 µM CQ, 1 h, mean ± SEM.

“And” between values parts separate entries of the source, which are not always exact repeats. Identical values can stand only once.

Turning to `CCN(CC)CCCC(C)Nc1ccnc2cc(Cl)ccc12` (centres unmarked) [CQ, chloroquine], the “Activity at pH 4.5” value stood at 1.43 ± 0.06 pmol h-1 oocyte-1 at PfCRT variant E204A (setting [1]), 1.14 ± 0.27 pmol h-1 oocyte-1 in the experiment with PfCRT variant H180A (setting [4]) and 0.92 ± 0.11 pmol h-1 oocyte-1 in the experiment on PfCRT variant W280A (setting [5]). Also, the “Activity at pH 6.0” value came out at 2.98 ± 0.34 pmol h-1 oocyte-1 on PfCRT variant E204A (setting [1]), 3.12 ± 0.12 pmol h-1 oocyte-1 with PfCRT variant H180A (setting [4]) and 2.64 ± 0.28 pmol h-1 oocyte-1 with PfCRT variant W280A (setting [5]). Further, the R-value came out at 0.51 ± 0.09 at PfCRT variant E204A (E204A, CQ transport at pH 4.5 / pH 6.0); 0.36 ± 0.09 in the experiment with PfCRT variant H180A (H180A, CQ transport at pH 4.5 / pH 6.0); 0.35 ± 0.03 with PfCRT variant W280A (W280A, CQ transport at pH 4.5 / pH 6.0). Besides, the “E204A transport activity pH 4.5” value at PfCRT variant E204A (setting [2]) is 1.57 pmol oocyte-1 h-1 and 1.35 pmol oocyte-1 h-1 and 1.36 pmol oocyte-1 h-1. Also, on PfCRT variant E204A (pH 4.5 vs pH 6.0, Fig 1d left), the “E204A R-value” was 0.72 and 0.42 and 0.38. Also, the “E204A transport activity pH 6.0” value on PfCRT variant E204A (setting [3]) is 2.18 pmol oocyte-1 h-1 and 3.22 pmol oocyte-1 h-1 and 3.54 pmol oocyte-1 h-1. Besides, in the experiment on PfCRT variant H180A (setting [2]), the “H180A transport activity pH 4.5” value is 0.55 pmol oocyte-1 h-1 and 1.69 pmol oocyte-1 h-1 and 1.17 pmol oocyte-1 h-1. Also, the “H180A transport activity pH 6.0” value with PfCRT variant H180A (setting [3]) was 2.90 pmol oocyte-1 h-1 and 3.04 pmol oocyte-1 h-1 and 3.41 pmol oocyte-1 h-1. In addition, in the experiment on PfCRT variant W280A (setting [2]), the “W280A transport activity pH 4.5” value is 0.97 pmol oocyte-1 h-1 and 0.58 pmol oocyte-1 h-1 and 1.22 pmol oocyte-1 h-1 and 0.92 pmol oocyte-1 h-1. Besides, the “W280A R-value” in the experiment with PfCRT variant W280A (pH 4.5 vs pH 6.0, Fig 1d left) is 0.31 and 0.28 and 0.38 and 0.44. In the experiment with PfCRT variant W280A (setting [3]), the “W280A transport activity pH 6.0” value is 3.17 pmol oocyte-1 h-1 and 2.06 pmol oocyte-1 h-1 and 3.24 pmol oocyte-1 h-1 and 2.09 pmol oocyte-1 h-1.
